According to patent US11135234B2, “Effective aminoglycoside antibiotic for multidrug-resistant bacteria” (MICROBIAL CHEMISTRY RESEARCH FOUNDATION, priority 2015, dated 2021):
Converted amounts (≈) assume the structure as drawn.

Legend:
S. aureus RN4220 = test: MIC, agar plate dilution method, S. aureus RN4220; format: cell-based, Staphylococcus aureus; details: for minimal inhibitory concentration (MIC): S. aureus RN4220, Sensitive bacterium
Summary of the method: (§1)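 MIC values, expressed in μg/mL, come from an agar plate dilution assay run as the Japan Society of Chemotherapy describes.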

S. aureus RN4220/pMS520 = test: MIC, agar plate dilution method, S. aureus RN4220/pMS520; format: cell-based, Staphylococcus aureus; details: for minimal inhibitory concentration (MIC): S. aureus RN4220/pMS520, MRSA
Summary of the method: as §1

S. aureus MF490 = test: MIC, agar plate dilution method, S. aureus MF490; format: cell-based, Staphylococcus aureus; details: for minimal inhibitory concentration (MIC): S. aureus MF490, MRSA
Summary of the method: as §1

E. faecium ATCC19434 = test: MIC, agar plate dilution method, E. faecium ATCC19434; format: cell-based, Enterococcus faecium; details: for minimal inhibitory concentration (MIC): E. faecium ATCC19434
Summary of the method: as §1

E. coli JM109/pMW218 = test: MIC, agar plate dilution method, E. coli JM109/pMW218; format: cell-based, Escherichia coli; details: for minimal inhibitory concentration (MIC): E. coli JM109/pMW218, Sensitive bacterium
Summary of the method: as §1

[1] = test system: K. pneumoniae ATCC BAA-1705; test: MIC, agar plate dilution method, K. pneumoniae ATCC BAA-1705; format: cell-based, Klebsiella pneumoniae; details: for minimal inhibitory concentration (MIC): K. pneumoniae ATCC BAA-1705, KPC-producing strain
Summary of the method: as §1

[2] = test system: K. pneumoniae ATCC BAA-2146; test: MIC, agar plate dilution method, K. pneumoniae ATCC BAA-2146; format: cell-based, Klebsiella pneumoniae; details: for minimal inhibitory concentration (MIC): K. pneumoniae ATCC BAA-2146, NDM-producing strain
Summary of the method: as §1

[3] = test system: A. baumannii ATCC BAA-1710; test: MIC, agar plate dilution method, A. baumannii ATCC BAA-1710; format: cell-based, Acinetobacter baumannii; details: for minimal inhibitory concentration (MIC): A. baumannii ATCC BAA-1710, MDRA
Summary of the method: as §1

S. marcescens TH-0447 = test: MIC, agar plate dilution method, S. marcescens TH-0447; format: cell-based, Serratia marcescens; details: for minimal inhibitory concentration (MIC): S. marcescens TH-0447, AMK-resistant
Summary of the method: as §1

S. marcescens GN6944 = test: MIC, agar plate dilution method, S. marcescens GN6944; format: cell-based, Serratia marcescens; details: S. marcescens GN6944, GM-resistant
Summary of the method: as §1

P. aeruginosa PAO1 = test: MIC, agar plate dilution method, P. aeruginosa PAO1; format: cell-based, Pseudomonas aeruginosa; details: for minimal inhibitory concentration (MIC): P. aeruginosa PAO1, Sensitive bacterium
Summary of the method: as §1

P. aeruginosa PAO1/GN315 = test: MIC, agar plate dilution method, P. aeruginosa PAO1/GN315; format: cell-based, Pseudomonas aeruginosa; details: for minimal inhibitory concentration (MIC): P. aeruginosa PAO1/GN315, AMK-resistant
Summary of the method: as §1

P. aeruginosa MSC17707 = test: MIC, agar plate dilution method, P. aeruginosa MSC17707; format: cell-based, Pseudomonas aeruginosa; details: for minimal inhibitory concentration (MIC): P. aeruginosa MSC17707, AMK-resistant
Summary of the method: as §1

P. aeruginosa MSC01035 = test: MIC, agar plate dilution method, P. aeruginosa MSC01035; format: cell-based, Pseudomonas aeruginosa; details: P. aeruginosa MSC01035, ABK-resistant
Summary of the method: as §1

Compound | minimal inhibitory concentration (MIC) (S. aureus RN4220) | minimal inhibitory concentration (MIC) (S. aureus RN4220/pMS520) | minimal inhibitory concentration (MIC) (S. aureus MF490) | minimal inhibitory concentration (MIC) (E. faecium ATCC19434) | minimal inhibitory concentration (MIC) (E. coli JM109/pMW218) | minimal inhibitory concentration (MIC) [1] | minimal inhibitory concentration (MIC) [2] | minimal inhibitory concentration (MIC) [3] | minimal inhibitory concentration (MIC) (S. marcescens TH-0447) | minimal inhibitory concentration (MIC) (S. marcescens GN6944) | minimal inhibitory concentration (MIC) (P. aeruginosa PAO1) | minimal inhibitory concentration (MIC) (P. aeruginosa PAO1/GN315) | minimal inhibitory concentration (MIC) (P. aeruginosa MSC17707) | minimal inhibitory concentration (MIC) (P. aeruginosa MSC01035) | further results
CNC1C(OC2OC(CO)C(NC(=N)N)CC2O)OC2CC(N)C(OC3C(N)CC(N)C(O)C3O)OC2C1O (stereo not drawn) [Compound X4-a, 4″-deamino-3″-deoxy-5-epi-4″-guanidinoapramycin] | 1 µg/mL (≈ 1.77 µM) | 1 µg/mL (≈ 1.77 µM) | 4 µg/mL (≈ 7.07 µM) | 8 µg/mL (≈ 14.1 µM) | 0.5 µg/mL (≈ 0.884 µM) | 1 µg/mL (≈ 1.77 µM) | 1 µg/mL (≈ 1.77 µM) | 4 µg/mL (≈ 7.07 µM) | 4 µg/mL (≈ 7.07 µM) | 4 µg/mL (≈ 7.07 µM) | 4 µg/mL (≈ 7.07 µM) | 4 µg/mL (≈ 7.07 µM) | 8 µg/mL (≈ 14.1 µM) | 8 µg/mL (≈ 14.1 µM) | 
CNC1C(O[C@H]2OC(CO)[C@@H](NC(=N)N)CC2O)O[C@H]2CC(N)[C@@H](O[C@@H]3C(N)C[C@@H](N)C(O)[C@H]3F)OC2C1O (stereo partly drawn) [Compound X4-b, 4″-deamino-5,3″-dideoxy-5-epi-5-fluoro-4″-guanidinoapramycin] |  |  |  |  |  |  |  |  |  |  |  |  |  |  | MIC (S. aureus RN4220; Staphylococcus aureus, RN4220, S. aureus RN4220, Sensitive bacterium, read-out: minimal inhibitory concentration (MIC)): 1 µg/mL (≈ 1.76 µM); MIC (S. aureus RN4220/pMS520; Staphylococcus aureus, MRSA, read-out: minimal inhibitory concentration (MIC), S. aureus RN4220/pMS520, MRSA): 1 µg/mL (≈ 1.76 µM); MIC (S. aureus MF490; Staphylococcus aureus, MRSA, read-out: minimal inhibitory concentration (MIC)): 4 µg/mL (≈ 7.05 µM); MIC (E. faecium ATCC19434; Enterococcus faecium, ATCC19434, E. faecium ATCC19434, read-out: minimal inhibitory concentration (MIC)): 8 µg/mL (≈ 14.1 µM); MIC (E. coli JM109/pMW218; Escherichia coli, JM109/PMW218, E. coli JM109/pMW218, Sensitive bacterium, read-out: minimal inhibitory concentration (MIC)): 1 µg/mL (≈ 1.76 µM); MIC ([1]; Klebsiella pneumoniae, ATCCBAA1705, K. pneumoniae ATCC BAA-1705, KPC-producing strain, read-out: minimal inhibitory concentration (MIC)): 1 µg/mL (≈ 1.76 µM); MIC ([2]; Klebsiella pneumoniae, ATCCBAA2146, K. pneumoniae ATCC BAA-2146, NDM-producing strain, read-out: minimal inhibitory concentration (MIC)): 1 µg/mL (≈ 1.76 µM); MIC ([3]; Acinetobacter baumannii, ATCCBAA1710, A. baumannii ATCC BAA-1710, MDRA, read-out: minimal inhibitory concentration (MIC)): 16 µg/mL (≈ 28.2 µM); MIC (S. marcescens TH-0447; Serratia marcescens, TH0447, S. marcescens TH-0447, AMK-resistant, read-out: minimal inhibitory concentration (MIC)): 4 µg/mL (≈ 7.05 µM); MIC (S. marcescens GN6944; Serratia marcescens, read-out: minimal inhibitory concentration (MIC)): 4 µg/mL (≈ 7.05 µM); MIC (P. aeruginosa PAO1; Pseudomonas aeruginosa, PAO1, P. aeruginosa PAO1, Sensitive bacterium, read-out: minimal inhibitory concentration (MIC)): 4 µg/mL (≈ 7.05 µM); MIC (P. aeruginosa PAO1/GN315; Pseudomonas aeruginosa, read-out: minimal inhibitory concentration (MIC), P. aeruginosa PAO1/GN315, AMK-resistant): 8 µg/mL (≈ 14.1 µM); MIC (P. aeruginosa MSC17707; Pseudomonas aeruginosa, MSC17707, P. aeruginosa MSC17707, AMK-resistant, read-out: minimal inhibitory concentration (MIC)): 8 µg/mL (≈ 14.1 µM); MIC (P. aeruginosa MSC01035; Pseudomonas aeruginosa, read-out: minimal inhibitory concentration (MIC)): 16 µg/mL (≈ 28.2 µM)
CNC1C(OC2CC(O)C(N)C(CO)O2)OC2CC(N)C(OC3C(N)CC(N)C(O)C3O)OC2C1O (centres unmarked) [Compound Y3, 2″-deoxy-5,3″-diepiapramycin] | 2 µg/mL (≈ 3.82 µM) | 2 µg/mL (≈ 3.82 µM) | 4 µg/mL (≈ 7.64 µM) | 8 µg/mL (≈ 15.3 µM) | 1 µg/mL (≈ 1.91 µM) | 2 µg/mL (≈ 3.82 µM) | 2 µg/mL (≈ 3.82 µM) | 8 µg/mL (≈ 15.3 µM) | 8 µg/mL (≈ 15.3 µM) | 4 µg/mL (≈ 7.64 µM) | 4 µg/mL (≈ 7.64 µM) | 8 µg/mL (≈ 15.3 µM) | 8 µg/mL (≈ 15.3 µM) | 16 µg/mL (≈ 30.6 µM) | 
gentamicin [GM, reference compound] | 0.5 µg/mL | 0.5 µg/mL | >64 µg/mL | 8 µg/mL | 0.25 µg/mL | 2 µg/mL | >64 µg/mL | >64 µg/mL | 32 µg/mL | 64 µg/mL | 2 µg/mL | 8 µg/mL | 8 µg/mL | >64 µg/mL | 
